ChEMBL document CHEMBL5046271, “Design, Synthesis, and Biological Evaluation of 2-Formyl Tetrahydronaphthyridine Urea Derivatives as New Selective Covalently Reversible FGFR4 Inhibitors” (J Med Chem, 2022)
pIC50: −log10 of the molar value.

Experiments:
NCI-H1581 = experiment: Cytotoxicity against human NCI-H1581 cells harboring FGF19/FGFR4 assessed as inhibition of cell growth
Huh-7 = experiment: Cytotoxicity against human Huh-7 cells harboring FGF19/FGFR4 assessed as inhibition of cell growth
[1] = target: Fibroblast growth factor receptor 3 (Homo sapiens, UniProt P22607); experiment: Inhibition of FGFR3 (unknown origin) using Tyr 04 peptide substrate measured after 2 hrs by FRET assay
Sequence of Fibroblast growth factor receptor 3 (P22607 whole entry): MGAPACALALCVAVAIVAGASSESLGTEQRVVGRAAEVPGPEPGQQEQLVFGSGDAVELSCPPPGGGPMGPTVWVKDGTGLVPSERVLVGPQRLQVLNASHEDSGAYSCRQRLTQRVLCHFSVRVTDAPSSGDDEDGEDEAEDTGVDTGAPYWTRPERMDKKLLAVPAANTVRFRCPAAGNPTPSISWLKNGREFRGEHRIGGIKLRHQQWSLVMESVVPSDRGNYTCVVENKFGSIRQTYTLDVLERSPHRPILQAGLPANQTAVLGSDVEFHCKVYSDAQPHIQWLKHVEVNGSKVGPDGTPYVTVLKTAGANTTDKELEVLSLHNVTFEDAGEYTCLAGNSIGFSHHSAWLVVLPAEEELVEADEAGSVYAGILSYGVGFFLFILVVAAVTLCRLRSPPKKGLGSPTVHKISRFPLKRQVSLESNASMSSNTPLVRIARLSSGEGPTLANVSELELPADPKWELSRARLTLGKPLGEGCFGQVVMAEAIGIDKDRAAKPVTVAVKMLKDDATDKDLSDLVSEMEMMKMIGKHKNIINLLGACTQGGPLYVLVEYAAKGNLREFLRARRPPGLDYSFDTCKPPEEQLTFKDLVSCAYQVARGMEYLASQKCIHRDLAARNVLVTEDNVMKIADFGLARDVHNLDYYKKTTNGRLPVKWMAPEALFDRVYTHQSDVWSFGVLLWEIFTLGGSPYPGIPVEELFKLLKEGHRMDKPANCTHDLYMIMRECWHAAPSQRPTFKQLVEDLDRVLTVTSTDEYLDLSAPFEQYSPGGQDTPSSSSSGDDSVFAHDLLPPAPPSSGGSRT

Hep 3B2 = experiment: Cytotoxicity against human Hep 3B2.1-7 cells harboring FGF19/FGFR4 assessed as inhibition of cell growth; settings: Hep3B
MDA-MB-453 = experiment: Cytotoxicity against human MDA-MB-453 cells harboring FGF19/FGFR4 assessed as inhibition of cell growth
[2] = target: Fibroblast growth factor receptor 2 (Homo sapiens, UniProt P21802); experiment: Inhibition of FGFR2 (unknown origin) using Tyr 04 peptide substrate measured after 2 hrs by FRET assay
Sequence of Fibroblast growth factor receptor 2 (P21802 whole entry): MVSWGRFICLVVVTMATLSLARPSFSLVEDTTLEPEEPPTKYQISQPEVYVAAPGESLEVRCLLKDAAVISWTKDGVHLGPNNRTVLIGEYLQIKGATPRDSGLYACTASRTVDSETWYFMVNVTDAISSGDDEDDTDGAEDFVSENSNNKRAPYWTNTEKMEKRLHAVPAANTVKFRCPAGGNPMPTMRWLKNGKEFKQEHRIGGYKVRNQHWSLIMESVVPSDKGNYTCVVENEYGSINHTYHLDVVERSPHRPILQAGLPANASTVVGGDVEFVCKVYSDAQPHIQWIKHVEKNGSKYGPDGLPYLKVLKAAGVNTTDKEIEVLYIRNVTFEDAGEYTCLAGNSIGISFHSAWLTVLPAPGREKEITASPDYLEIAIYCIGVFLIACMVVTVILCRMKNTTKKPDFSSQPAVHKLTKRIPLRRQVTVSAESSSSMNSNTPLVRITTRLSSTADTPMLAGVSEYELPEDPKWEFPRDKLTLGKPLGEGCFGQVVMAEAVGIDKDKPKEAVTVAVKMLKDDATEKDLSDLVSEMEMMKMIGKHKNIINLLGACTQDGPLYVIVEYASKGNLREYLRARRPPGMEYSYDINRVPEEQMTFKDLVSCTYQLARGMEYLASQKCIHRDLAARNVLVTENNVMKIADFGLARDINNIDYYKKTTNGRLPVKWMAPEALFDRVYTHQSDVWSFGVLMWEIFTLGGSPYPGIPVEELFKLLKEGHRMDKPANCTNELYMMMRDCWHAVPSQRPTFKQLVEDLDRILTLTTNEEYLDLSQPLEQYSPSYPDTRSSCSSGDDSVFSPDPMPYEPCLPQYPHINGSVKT

[3] = target: Fibroblast growth factor receptor 1 (Homo sapiens, UniProt P11362); experiment: Inhibition of FGFR1 (unknown origin) using Tyr 04 peptide substrate measured after 2 hrs by FRET assay
Sequence of Fibroblast growth factor receptor 1 (P11362 whole entry): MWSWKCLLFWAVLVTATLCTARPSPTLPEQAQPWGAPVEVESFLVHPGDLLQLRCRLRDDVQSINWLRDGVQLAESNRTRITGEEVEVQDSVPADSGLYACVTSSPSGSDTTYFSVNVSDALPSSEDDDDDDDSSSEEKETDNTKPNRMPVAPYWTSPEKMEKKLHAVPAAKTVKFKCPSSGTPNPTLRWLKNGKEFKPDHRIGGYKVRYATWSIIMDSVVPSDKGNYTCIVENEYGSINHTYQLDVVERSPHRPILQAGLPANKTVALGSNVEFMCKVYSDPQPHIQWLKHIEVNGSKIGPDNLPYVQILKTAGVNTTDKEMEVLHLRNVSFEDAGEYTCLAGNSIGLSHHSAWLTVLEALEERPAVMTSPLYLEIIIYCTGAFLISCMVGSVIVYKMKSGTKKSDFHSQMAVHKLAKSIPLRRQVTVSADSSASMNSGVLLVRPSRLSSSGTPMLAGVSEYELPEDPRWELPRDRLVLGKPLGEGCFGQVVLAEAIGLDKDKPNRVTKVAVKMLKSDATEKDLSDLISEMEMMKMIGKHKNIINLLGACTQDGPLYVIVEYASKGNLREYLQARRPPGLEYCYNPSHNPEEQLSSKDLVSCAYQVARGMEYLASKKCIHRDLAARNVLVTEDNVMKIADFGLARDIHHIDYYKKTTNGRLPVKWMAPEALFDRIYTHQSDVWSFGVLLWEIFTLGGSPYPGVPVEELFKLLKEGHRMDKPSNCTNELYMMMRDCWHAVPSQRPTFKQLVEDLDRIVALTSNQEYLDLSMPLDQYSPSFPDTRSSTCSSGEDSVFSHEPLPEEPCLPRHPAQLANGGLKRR

| Compound | pIC50 [1] | pIC50 [2] | pIC50 [3] | pIC50 (NCI-H1581) | pIC50 (Huh-7) | pIC50 (Hep 3B2) | pIC50 (MDA-MB-453) |
| --- | --- | --- | --- | --- | --- | --- | --- |
| COCCNc1cc(NC(=O)N2CCCc3cc(CN4CCN(C)CC4=O)c(C=O)nc32)ncc1C#N [FGF401] |  |  |  | < 5.52 | 8.05 | 6.68 | 6.04 |
| CC(C)Oc1cc(NC(=O)N2CCCc3ccc(C=O)nc32)ncc1C#Cc1ccccn1 | < 5.00 | < 5.00 | < 5.00 |  |  |  |  |
| COCCNc1cc(NC(=O)N2CCCc3ccc(C=O)nc32)ncc1C#N | < 5.00 | < 5.00 | < 5.00 |  |  |  |  |
| COCCNc1cc(NC(=O)N2CCCc3ccc(C=O)nc32)ncc1C#Cc1ccccn1 | < 5.00 | < 5.00 | < 5.00 |  |  |  |  |
| COCCOc1cc(NC(=O)N2CCCc3ccc(C=O)nc32)ncc1C#Cc1ccccn1 | < 5.00 | < 5.00 | < 5.00 |  |  |  |  |
| CC(C)Oc1cc(NC(=O)N2CCCc3ccc(C=O)nc32)ncc1C#Cc1cccnc1 | < 5.00 | < 5.00 | < 5.00 |  |  |  |  |
| COc1cccc(CCc2cnc(NC(=O)N3CCCc4ccc(C=O)nc43)cc2OC(C)C)c1 | < 5.00 | < 5.00 | < 5.00 |  |  |  |  |
| COc1cccc(C#Cc2cnc(NC(=O)N3CCCc4ccc(C=O)nc43)cc2OC(C)C)c1 | < 5.00 | < 5.00 | < 5.00 |  |  |  |  |
| CC(C)Oc1cc(NC(=O)N2CCCc3ccc(C=O)nc32)ncc1C#Cc1ccccc1 | < 5.00 | < 5.00 | < 5.00 |  |  |  |  |
| O=Cc1ccc2c(n1)N(C(=O)Nc1cc(NC3CCCC3)c(C#Cc3ccccn3)cn1)CCC2 | < 5.00 | < 5.00 | < 5.00 |  |  |  |  |
| O=Cc1ccc2c(n1)N(C(=O)Nc1cc(NC3CC3)c(C#Cc3ccccn3)cn1)CCC2 | < 5.00 | < 5.00 | < 5.00 |  |  |  |  |
| COCCNc1cc(NC(=O)N2CCCc3ccc(C=O)nc32)ncc1C#Cc1cccnc1 | < 5.00 | < 5.00 | < 5.00 |  |  |  |  |
| CC(C)Oc1cc(NC(=O)N2CCCc3ccc(C=O)nc32)ncc1C#Cc1cncnc1 | < 5.00 | < 5.00 | < 5.00 |  |  |  |  |
| COC[C@@H](C)Nc1cc(NC(=O)N2CCCc3ccc(C=O)nc32)ncc1C#Cc1cccnc1 | < 5.00 | < 5.00 | < 5.00 |  |  |  |  |

Second part, led by results:

| pIC50 [1] | pIC50 [2] | pIC50 [3] | Compound | pIC50 (NCI-H1581) | pIC50 (Huh-7) | pIC50 (Hep 3B2) | pIC50 (MDA-MB-453) |
| --- | --- | --- | --- | --- | --- | --- | --- |
| < 5.00 | < 5.00 | < 5.00 | COc1cc(C#Cc2cnc(NC(=O)N3CCCc4cc(CN5CCN(C)CC5=O)c(C=O)nc43)cc2OC(C)C)cc(OC)c1 | < 5.52 | 7.18 | 5.87 | 6.33 |
| < 5.00 | < 5.00 | < 5.00 | COc1cc(CCc2cnc(NC(=O)N3CCCc4cc(CN5CCN(C)CC5=O)c(C=O)nc43)cc2OC(C)C)cc(OC)c1 | < 5.52 | 7.83 | 5.84 | 5.65 |
| < 5.00 | < 5.00 | < 5.00 | C=CC(=O)Nc1cccc(C)c1Nc1ncc2cc(-c3c(Cl)c(OC)cc(OC)c3Cl)ccc2n1 | < 4.36 |  | 6.26 | 6.92 |
| < 5.00 | < 5.00 | < 5.00 | CC(C)Oc1cc(NC(=O)N2CCCc3ccc(C=O)nc32)ncc1C#Cc1ccncc1 |  |  |  |  |
| < 5.00 | < 5.00 | < 5.00 | O=Cc1ccc2c(n1)N(C(=O)Nc1cc(F)c(C#Cc3cccnc3)cn1)CCC2 |  |  |  |  |
| < 5.00 | < 5.00 | < 5.00 | COCCOc1cc(NC(=O)N2CCCc3ccc(C=O)nc32)ncc1C#Cc1cccnc1 |  |  |  |  |
| < 5.00 | < 5.00 | < 5.00 | CC(C)Oc1cc(NC(=O)N2CCCc3ccc(C=O)nc32)ncc1C#Cc1cnccn1 |  |  |  |  |
| < 5.00 | < 5.00 | < 5.00 | COC[C@H](C)Nc1cc(NC(=O)N2CCCc3ccc(C=O)nc32)ncc1C#Cc1cccnc1 |  |  |  |  |
| < 5.00 | < 5.00 | < 5.00 | CC(C)CNc1cc(NC(=O)N2CCCc3ccc(C=O)nc32)ncc1C#Cc1ccccn1 |  |  |  |  |
| < 5.00 | < 5.00 | < 5.00 | COc1cc(C#Cc2cnc(NC(=O)N3CCCc4ccc(C=O)nc43)cc2OC(C)C)cc(OC)c1 |  |  |  |  |
| < 5.00 | < 5.00 | < 5.00 | O=Cc1ccc2c(n1)N(C(=O)Nc1cc(F)c(C#Cc3ccccn3)cn1)CCC2 |  |  |  |  |
| < 5.00 | < 5.00 | < 5.00 | CC(C)Oc1cc(NC(=O)N2CCCc3ccc(C=O)nc32)ncc1C#Cc1cccc(C#N)c1 |  |  |  |  |
| < 5.00 | < 5.00 | < 5.00 | COc1cc(CCc2cnc(NC(=O)N3CCCc4ccc(C=O)nc43)cc2OC(C)C)cc(OC)c1 |  |  |  |  |
| < 5.00 | < 5.00 | < 5.00 | CC(C)Oc1cc(NC(=O)N2CCCc3ccc(C=O)nc32)ncc1C#Cc1cncn1C |  |  |  |  |
| < 5.00 | < 5.00 | < 5.00 | COc1cc(OC)c(Cl)c(C#Cc2cnc(NC(=O)N3CCCc4ccc(C=O)nc43)cc2OC(C)C)c1Cl |  |  |  |  |
| < 5.00 | < 5.00 | < 5.00 | COc1cc(OC)cc(-c2cnc(NC(=O)N3CCCc4ccc(C=O)nc43)cc2OC(C)C)c1 |  |  |  |  |
| < 5.00 | < 5.00 | < 5.00 | CC(C)Oc1cc(NC(=O)N2CCCc3cc(CN4CCN(C)CC4=O)c(C=O)nc32)ncc1C#Cc1ccccn1 | < 5.52 | 8.20 | 6.18 | 5.88 |
| < 5.00 | < 5.00 | < 5.00 | CC(C)Oc1cc(NC(=O)N2CCCc3ccc(C=O)nc32)ncc1C#Cc1ccc(C#N)cc1 |  |  |  |  |
